Test results as given in patent US20230414826A1, “FIBRIN HYDROGELS” (Mayo Foundation for Medical Education and Research, priority 2020, published 2023).

Biological target: T1, fibrinogen (Evicel) (Homo sapiens, UniProt P02671+P02675+P02679)
T1 construct: purchased Ethicon (Evicel Biologically Active Component 2)
T1 sequence (P02671 20-629 limits assumed): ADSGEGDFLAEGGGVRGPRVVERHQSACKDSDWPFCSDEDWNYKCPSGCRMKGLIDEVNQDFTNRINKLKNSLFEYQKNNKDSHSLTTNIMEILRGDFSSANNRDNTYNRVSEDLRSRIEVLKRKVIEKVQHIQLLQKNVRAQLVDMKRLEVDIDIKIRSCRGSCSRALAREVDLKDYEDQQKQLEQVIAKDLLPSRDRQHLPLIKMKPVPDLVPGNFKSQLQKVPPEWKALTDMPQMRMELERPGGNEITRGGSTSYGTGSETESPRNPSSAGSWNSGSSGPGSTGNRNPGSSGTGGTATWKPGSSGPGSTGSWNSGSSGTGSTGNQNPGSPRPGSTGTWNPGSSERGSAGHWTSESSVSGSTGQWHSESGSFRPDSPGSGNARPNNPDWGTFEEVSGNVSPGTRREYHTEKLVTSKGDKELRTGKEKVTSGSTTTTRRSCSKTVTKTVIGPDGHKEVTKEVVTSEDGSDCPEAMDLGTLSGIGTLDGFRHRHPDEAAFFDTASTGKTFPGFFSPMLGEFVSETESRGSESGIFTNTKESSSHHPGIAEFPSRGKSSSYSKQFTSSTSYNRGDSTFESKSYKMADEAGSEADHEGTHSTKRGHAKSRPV
T1 sequence (P02675 31-491): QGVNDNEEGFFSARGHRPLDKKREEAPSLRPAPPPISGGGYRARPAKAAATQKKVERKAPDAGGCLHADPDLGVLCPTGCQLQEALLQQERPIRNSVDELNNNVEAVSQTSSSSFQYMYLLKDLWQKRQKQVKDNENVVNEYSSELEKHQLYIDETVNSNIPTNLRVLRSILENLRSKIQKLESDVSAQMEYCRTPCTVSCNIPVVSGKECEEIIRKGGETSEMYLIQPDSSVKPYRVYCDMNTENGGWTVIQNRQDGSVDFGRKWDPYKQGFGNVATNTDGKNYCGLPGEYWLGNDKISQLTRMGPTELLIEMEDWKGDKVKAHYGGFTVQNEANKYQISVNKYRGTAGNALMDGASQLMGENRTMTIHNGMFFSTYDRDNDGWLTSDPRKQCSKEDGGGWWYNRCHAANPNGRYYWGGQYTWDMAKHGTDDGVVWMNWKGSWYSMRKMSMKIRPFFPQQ
T1 sequence (P02679 27-433 limits assumed): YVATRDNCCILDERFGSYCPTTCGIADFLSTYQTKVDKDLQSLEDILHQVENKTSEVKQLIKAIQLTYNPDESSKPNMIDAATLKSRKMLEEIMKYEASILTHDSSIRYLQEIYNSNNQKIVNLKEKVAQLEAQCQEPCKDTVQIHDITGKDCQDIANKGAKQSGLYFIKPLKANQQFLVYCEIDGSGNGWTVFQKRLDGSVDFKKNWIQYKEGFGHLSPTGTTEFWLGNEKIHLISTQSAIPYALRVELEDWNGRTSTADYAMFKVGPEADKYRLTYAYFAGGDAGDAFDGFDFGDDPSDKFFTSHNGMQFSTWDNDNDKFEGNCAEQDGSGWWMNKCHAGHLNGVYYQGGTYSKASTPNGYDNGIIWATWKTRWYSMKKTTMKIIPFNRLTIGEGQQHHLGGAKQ
Experiment: Fibrinogen clotting assay with coagulation analyzer (Clauss method), tissue glue fibrinogen
Type: biochemical
Conditions: for gelation time (average clotting time): 4.58 mM additive in PBS, fixed 1:20 dilution of fibrinogen (Evicel), n=10; for Effect on Clotting Time: screen, multiple concentrations up to 4.58 mM

Molecule	gelation time (average clotting time) [s]	Effect on Clotting Time	further results
Cc1cc(N=Nc2ccc(C)c(N=Nc3cc(C)c(N)cc3N)c2)c(N)cc1N.Cl.Cl [BBr, Bismarck Brown R, reference compound]	18.9 ± 3.3	No effect	–
Alcian Blue [AB, reference compound]	–	caused protein precipitation	Effect on Clotting Time (listed as Alcian Blue (AB)): Precip
Brilliant Blue R [BB, reference compound]	–	caused protein precipitation	Effect on Clotting Time (listed as Brilliant Blue R (BB)): Precip
CC1(C)C(/C=C/C=C/C=C/C=C2\N(CCCCS(=O)(=O)O)c3ccc4ccccc4c3C2(C)C)=[N+](CCCCS(=O)(=O)[O-])c2ccc3ccccc3c21 [ICG, Indocyanine Green, reference compound]	–	caused protein precipitation	Effect on Clotting Time (listed as Indocyanine Green (ICG)): Precip
O=C([O-])c1ccccc1-c1c2ccc(=O)cc-2oc2cc([O-])ccc12.[Na+].[Na+] [SF, Sodium Fluorescein, reference compound]	18.5 ± 2.6	No effect	–
Nc1c(/N=N/c2ccc(-c3ccc(/N=N/c4cc(S(=O)(=O)O)c5ccccc5c4N)cc3)cc2)cc(S(=O)(=O)O)c2ccccc12 [CR, Congo Red, reference compound]	–	caused protein precipitation	Effect on Clotting Time (listed as Congo Red (CR)): Precip
